Test results published in patent US10962528B2, “Blue fluorescent protein monomers and uses thereof” (WISYS TECHNOLOGY FOUNDATION, INC., priority 2015, dated 2021).

Columns and labels:
[1] = target: T1, Sander vitreus Sandercyanin fluorescent protein (SFP) variant, Phe 55 to alanine (Sander vitreus, UniProt A0A1D5B367, F36A); assay: Biliverdin binding of SFP mutant; conditions: Phe 55 to alanine mutation
T1 construct: preparation not described for this mutant

[2] = target: Sander vitreus Sandercyanin fluorescent protein (SFP) variant SFP-V71E (mSFP1), SEQ ID NO:2 (Sander vitreus, UniProt A0A1D5B367, V52E); assay: Biliverdin binding of monomeric SFP variant
Description: (§1) All experiments were performed with purified SFP samples (apo and holo forms) at pH 7.5 and room temperature. UV-Visible absorbance spectra of native and recombinant SFP were recorded from 800 to 200 nm with ultraspec 2100 pro spectrophotometer from Amersham Biosciences. CD spectra were measured on JASCO J-815 Spectropolarimeter. Steady state fluorescence, excitation, binding and photobleaching studies were monitored on Horiba Jobin Yvon Fluoromax-4 fluorimeter. Data analysis were done using Origin6 and Origin8 software. Hydrogen was exchanged with Deuterium by increasing concentrations of D2O to a standard protein concentration. Deuteriated proteins were prepared in the same buffer, incubated for 15 minutes, and monitored for spectral properties.
(§2) All SFP variants were expressed using E. coli BL21*(DE3) cells. Briefly, each of the SFP monomer mutant genes in pET21a vector were transformed into BL21*(DE3) cells and selected on a LB agar plate containing ampicillin (100 μg/mL). For large scale expression, about 5 mL of the overnight grown primary culture was inoculated into 500 mL of LB medium containing 100 μg/mL ampicillin. Cells were grown at 37° C. until OD600 nm reached to 0.6-0.7. Then, cells were induced using 0.2 mM isopropyl-thiogalactoside (IPTG). Post-induction cells were grown at 20° C. for 20 hours. Thereafter, cells were harvested by centrifugation at 6000 rpm for 10 minutes. Bacterial cell pellet containing SFP as insoluble protein was resuspended in a lysis buffer (20 mM Tris-HCl, pH 7.5, 10 mM EDTA and 1% TritonX). […] Thus, refolded purified SFP was checked using an analytical gel filtration column for oligomerization state and biliverdin (BV) binding by UV-visible absorbance and fluorescence spectroscopy (FIGS. 1A-1D).
(§3) Characterization of monoSFP Variants—MonoSFP variants were characterized by size-exclusion chromatography during purification of the proteins. […] They have far-red to near infra-red fluorescence with large Stokes shift. […] To test this, we performed detergent (Triton X-100) assays with the monoSFPs and measured absorbance and fluorescence spectra. […]

[3] = target: Sander vitreus Sandercyanin fluorescent protein (SFP) variant SFP-A137E, SEQ ID NO:4 (Sander vitreus, UniProt A0A1D5B367, A118E); assay: Biliverdin binding of monomeric SFP variant
Description: as §1, §2, §3

[4] = target: Sander vitreus Sandercyanin fluorescent protein (SFP) variant SFP-L135E (mSFP2), SEQ ID NO:3 (Sander vitreus, UniProt A0A1D5B367, L116E); assay: Biliverdin binding of monomeric SFP variant
Description: as §1, §2, §3

[5] = target: T2, Sander vitreus (blue walleye) Sandercyanin fluorescent protein (SFP), wild type, SEQ ID NO:1 (recombinant without signal peptide SEQ ID NO:31) (Sander vitreus, UniProt A0A1D5B367); assay: Binding of biliverdin to (apo) Sandercyanin by fluorescence titration
T2 construct: apo monomer, tetramer with biliverdin
T2 sequence (A0A1D5B367 1-170): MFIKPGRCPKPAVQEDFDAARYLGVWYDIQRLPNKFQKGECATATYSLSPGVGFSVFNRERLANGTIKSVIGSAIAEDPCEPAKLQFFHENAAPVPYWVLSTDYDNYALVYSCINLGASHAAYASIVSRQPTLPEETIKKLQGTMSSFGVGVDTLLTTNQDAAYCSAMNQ
Description: FIGS. 11C-11D (C) Titration of apo-SFP (20 uM) with BV IXα measured at 675 nm with λex=375 nm (green) and 630 nm (red). (D) Photo-bleaching kinetics of Sandercyanin and free-biliverdin (BV).
Addition of the biliverdin to apo-protein results in red-shift in the fluorescence of Sandercyanin to near infra-red (NIR) region. Molar extinction coefficient of holoSFP measured in phosphate buffer of pH 7.4 at 375 nm and 630 nm are 21,000 M^−1 cm^−1 and 13,500 M^−1 cm^−1 respectively and quantum yield is determined to be 0.016. Further, fluorescence spectra is widely spread into the infrared region with minimal overlap with the excitation spectra. We examined the affinity of apoSFP towards BV using fluorescence and determined Kd of 6 μM.
Native SFP was extracted and purified from the mucus of Blue Walleye from Northwest Ontario by various chromatographic methods as described previously (Chi Li et al). A putative amino acid sequence of SFP was determined from crystal structure of the native protein, confirmed and corrected after whole genome sequencing of Blue Walleye. […]
All experiments were performed with purified SFP samples (apo and holo forms) at pH 7.5 and room temperature. UV-Visible absorbance spectra of native and recombinant SFP were recorded from 800 to 200 nm with ultraspec 2100 pro spectrophotometer from Amersham Biosciences. CD spectra were measured on JASCO J-815 Spectropolarimeter. […]

T1 sequence (A0A1D5B367 entry or part of it F36A): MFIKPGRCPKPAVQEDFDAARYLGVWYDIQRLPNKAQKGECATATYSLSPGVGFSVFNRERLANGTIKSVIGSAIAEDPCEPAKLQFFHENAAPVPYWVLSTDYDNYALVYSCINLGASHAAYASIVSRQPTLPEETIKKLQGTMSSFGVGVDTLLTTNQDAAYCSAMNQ
Sequence of Sander vitreus Sandercyanin fluorescent protein (SFP) variant SFP-V71E (mSFP1), SEQ ID NO:2 (A0A1D5B367 entry or part of it V52E): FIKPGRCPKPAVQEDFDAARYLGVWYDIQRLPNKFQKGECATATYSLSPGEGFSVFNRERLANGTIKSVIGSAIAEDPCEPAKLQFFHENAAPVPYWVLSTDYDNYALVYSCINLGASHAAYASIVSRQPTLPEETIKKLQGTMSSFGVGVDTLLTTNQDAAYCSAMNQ
Sequence of Sander vitreus Sandercyanin fluorescent protein (SFP) variant SFP-L135E (mSFP2), SEQ ID NO:3 (A0A1D5B367 entry or part of it L116E): as the sequence (A0A1D5B367 entry or part of it V52E) above, with E51V, L115E counted along it
Sequence of Sander vitreus Sandercyanin fluorescent protein (SFP) variant SFP-A137E, SEQ ID NO:4 (A0A1D5B367 entry or part of it A118E): as the sequence (A0A1D5B367 entry or part of it V52E) above, with E51V, A117E counted along it

C=CC1=C(C)/C(=C/C2=NC(=C\c3[nH]c(/C=C4\NC(=O)C(C)=C4C=C)c(C)c3CCC(=O)O)/C(CCC(=O)O)=C2C)NC1=O [BV, Biliverdin IXα]
BV binding [1]: abolished BV binding | Kd [2]: 4 to 6 µM | Kd [3]: 3 to 5 µM | Kd [4]: 4 to 12 µM | Kd ([5]; Table 4, wild-type SFP (tetramer)): 5 to 6 µM | Kd ([5]; affinity of apoSFP towards BV using fluorescence, pH 7.5, room temperature): 6 µM
